Measurements: patent US6787547B2, “Compound and method for the treatment of pain” (Astrazeneca AB, priority 1999, dated 2004)

What was measured:
[1] = system: panel of more than 80 non-NMDA receptors; experiment: Binding to a panel of more than 80 non-NMDA receptors
Experimental: The compound of the invention was also tested for binding to a panel of more than 80 non-NMDA receptors.

[2] = system: NMDA induced behavior/seizure; experiment: Inhibition of NMDA induced behavior/seizure after intrathecal injection; type: in vivo; parameters: unit not given here
[3] = system: formalin-induced nociceptive behaviors in rats; experiment: Test B: Formalin test (formalin-induced nociceptive behaviors); type: in vivo, rat
Text: The Formalin test assesses the inhibitory effects of orally administered compounds on formalin-induced nociceptive behaviors in rats (D. Dubuisson, et al., Pain 4, 161-174 (1977); H. Wheeler-Aceto et al., Psychopharmacology 104, 35-44 (1991); T. J. Coderre, et al, Pain 54, 43-50 (1993)). In the test two distinctive phases of formalin-induced behaviors are detected. A first phase response, caused by acute nociception to the noxious chemical (formalin) injected into the paw, occurs between 0 to 5 minutes. A quiescent period of between 5 to 15 min post injection follows. After the quiescent period a second phase response, caused by sensitization of the central neurons in the dorsal horn, occurs after 15 minutes and lasts up to 60 minutes. Central sensitization augments a noxious afferent input causing a stronger pain barrage to be transmitted to the brain. Inhibition of the second phase response indicates a spinal mechanism of drug action.
The procedure for the formalin test is as follows: male rats are placed in a plexiglass chamber and observed for 30-45 min. to observe their baseline activity. […] The number of paw flinches (responses) during first phase (0-5 min.) and second phase (20-35 min.) are scored and recorded. Flinch response is calculated as percentage of inhibition compared with the mean score of a saline control group. […]

[4] = system: CCI rats, heat hyperalgesia; experiment: Test C: Neuropathic pain model (Chronic Constriction Injury), thermal hyperalgesia; type: in vivo, rat
Experimental: Test C: Neuropathic Pain Model (Chronic Constriction Injury)
Dose response studies are conducted with multiple groups of CCI rats dosed orally with either vehicle or the test compound three times daily with either vehicle or the test compound for 5 days. […] Efficacy is calculated as mean percentage decrease of hyperalgesia over 5 dosing days compared to vehicle-treated group. Compound potencies are expressed as the minimum effective dose (MED) in mg/Kg/day that yields a % decrease in hyperalgesia that is statistically significant, where the anti-hyperalgesic effect is determined as follows:
% of anti-hyperalgesia=(Mean of vehicle group−Mean of compound group)×100 (Mean of vehicle group)
Data analysis was performed by multiple means comparison (Dunnett's test).

[5] = target: T1, NMDA receptor glycine site (Homo sapiens, UniProt Q05586); experiment: Test A: Inhibition of binding of [3H]-MDL105,519, human brain membranes
T1 construct: Human brain membranes were obtained from Analytical Biological Services Inc; tissue Analytical Biological Services Inc; host or cells: human brain membranes
Experimental: (§1) Test A: Inhibition of Binding of [^3H]-MDL105,519
[^3H]MDL105,519 (72 Ci/mmol) was purchased from Amersham. Cold MDL105,519 was purchased from Sigma/RBI. Binding assays were performed substantially in accordance with the protocol of B. M. Baron et al, J. Pharmacol. Exp. Ther. 279, 62 (1996), as follows. On the day of the experiment, brain membranes were thawed at room temperature and suspended in 50 mM tris acetate buffer, pH 7.4 (“TAB”). Seventy-five micro grams per milliliter protein (by using the BioRad dye) were used for competition binding. The experiments were carried out using 96-well plates. Membranes were incubated with 20 μL of compounds of various concentrations and 1.2 nM [^3H]MDL105,519 for 30 minutes at room temperature in a total volume of 250 μL. Non specific binding was determined by using 100 μM of unlabeled MDL105,519. The unlabeled MDL105,519 and compounds were dissolved as 12.5 mM stock solutions in DMSO. Final DMSO concentration in each well was kept below 1%, which concentration was found not to alter the binding results. […] The plates were dried overnight at room temperature and bound radioactivity was measured on a Packard TopCount after the addition of 45 μL per well of the MICROSCINT O. Potency of a compound is expressed as the Ki and results were calculated using Microsoft Excel spreadsheet and GraphPad Prizm software. […]

[6] = target: T2, NMDA receptor glycine site (Rattus norvegicus, UniProt P35439); experiment: Test A: Inhibition of binding of [3H]-MDL105,519, rat brain membranes; conditions: 1.2 nM [3H]MDL105,519
T2 construct: The rat brain membranes used in the experiments were obtained from Analytical Biological Services Inc; tissue Analytical Biological Services Inc; host or cells: rat brain (cerebral cortex and hippocampus) membranes
Experimental: as §1
The rat brain membranes used in the experiments were obtained from Analytical Biological Services Inc., and were prepared substantially in accordance with the method of B. M. Baron et al., J. Pharmacol. Exp. Ther. 250, 162 (1989). Briefly, fresh brain tissue including cerebral cortex and hippocampus from male Sprague Dawley rats was homogenized in 0.32 M sucrose and centrifuged at low speed to separate cellular membranes from other cellular components. The membranes were then washed 3 times using deionized water, followed by treatment with 0.04% Triton X-100. Finally, membranes were washed six times in 50 mM Tris citrate buffer, pH 7.4, and frozen at −80° C. until use.
[^3H]MDL105,519 (72 Ci/mmol) was purchased from Amersham. Cold MDL105,519 was purchased from Sigma/RBI. Binding assays were performed substantially in accordance with the protocol of B. M. Baron et al, J. Pharmacol. Exp. Ther. 279, 62 (1996), as follows. […] Non specific binding was determined by using 100 μM of unlabeled MDL105,519. […] The plates were dried overnight at room temperature and bound radioactivity was measured on a Packard TopCount after the addition of 45 μL per well of the MICROSCINT O. Potency of a compound is expressed as the Ki and results were calculated using Microsoft Excel spreadsheet and GraphPad Prizm software.

SMILES	Interaction with non-NMDA receptors [1]	ED50 for inhibition of development of NMDA induced behavior/seizure [2]	ED50 ([3]; Rattus norvegicus, po, read-out: Efficacy in formalin pain model, ED50)	Minimal effective dose / dose required, CCI model of neuropathic pain [4]	MED (minimum effective dose), CCI model of neuropathic pain ([4]; oral, three times daily for 5 days)	Ki [5]	Ki [6]	Efficacy in formalin pain model, ED50 ([3]; rats, oral, dosed 3 hours prior to formalin, dose producing 50% inhibition of nociceptive response)	% anti-hyperalgesia in CCI model of neuropathic pain, heat hyperalgesia ([4]; oral, three times daily for 5 days, at the stated effective dose)
Cc1ccc(-n2nc(O)c3nc4cc(Cl)ccc4c(O)c3c2=O)c(Cl)c1 [compound of the invention, 7-chloro-4-hydroxy-2-(2-chloro-4-methylphenyl)-1,2,5,10-tetrahydropyridazino[4,5-b]quinoline-1,10-dione]	no significant interaction	110	~100 mg/kg	less than 2 mg/Kg/day	MED < 2 mg/Kg/d	50 nM	56 nM	–	–
NCC1(CC(=O)O)CCCCC1 [gabapentin, reference compound]	–	–	–	about 90 mg/Kg/day	–	–	–	comparable	about 46%
